Source: US8022080B2, “Small molecules with antiprotozoal activity” (Radix Pharmaceuticals Inc., priority 2009, dated 2011)
In brackets after ≈: the same amount, converted by molar mass. Where two headings read alike, the source gives them in different places.

Key:
[1] = tested on: P. falciparum D6 (chloroquine sensitive); assay: In vitro anti-malarial activity, [3H]hypoxanthine uptake, D6 clone; type: cell-based, Plasmodium falciparum
Text: (§1) For in vitro toxicological studies, the following cell line was chosen: human adult liver epithelial cells (THLE-3). THLE-3 cells express phenotypic characteristics of normal adult liver epithelial cells and constitute a valuable model for pharmacotoxicological studies.
(§2) Two P. falciparum malaria parasite clones, W2 and D6, from Malaria Research and Reference Reagent Resource Center (MR4), were utilized in susceptibility testing. […] Test compounds were initially dissolved in DMSO and diluted 400 fold in RPMI 1640 culture medium supplemented with 25 mM Hepes, 32 mM NaHCO3 and 10% Albumax I (Gibco, N.Y.). These solutions were subsequently serially diluted two-fold with a Beckman Biomek® 1000 Robot (Fullerton, Calif.) over 11 different concentrations. The parasites were exposed to serial dilutions of each compound for 48 hrs and incubated at 37° C. with 5% O2, 5% CO2 and 90% N2 prior to the addition of [^3H]hypoxanthine. After a further incubation of 18 hrs, parasite DNA was harvested from each microtiter well using Packard Filtermate™ 196 Harvester (Meriden, Conn.) onto glass filters. Uptake of [^3H]hypoxanthine was measured with a Packard TopCount Liquid Scintillation Counter (Packard Instrument Co.).

[2] = tested on: human adult liver epithelial cells (THLE-3); assay: In vitro toxicity evaluation, Sulforhodamine B; type: cell-based; details: for IC50: Homo sapiens, read-out: IC50 THLE-3; for Selectivity IC50 (THLE-3)/IC50 (D6): ratio THLE-3 vs D6
Protocol: as §1
Human adult liver epithelial cells (THLE-3) was maintained in tissue culture flasks in Waymouth's medium (Gibco, N.Y.) supplemented with 10% fetal bovine serum. Toxicity tests were performed in 96-well tissue culture plates using the protein-binding dye Sulforhodamine B. Test compounds were serially diluted and added to empty wells of the 96-well plate. THLE-3 cells in their culture medium were immediately seeded into the wells. Solvent blanks (no compound) were run in each test. After 72 hours under culture conditions cells were fixed to the plate by layering 50% TCA (4° C.) over the growth media in each well to produce a final TCA concentration of 10%. After incubating for one hour at 4° C., cultures were washed five times with tap water and left air-dried. Wells were stained for 30 min. with 0.4% (w/v) SRB in 1% acetic acid and washed four times with 1% acetic acid. Cultures were left air-dried and bound dye was solubilized with 10 mM Tris base (pH 10.5) for 15 min. on a gyratory shaker at room temperature. A Spectra MAX Plus Microtiter Plate Reader (Molecular Devices, Menlo Park, Calif.) was used to measure the optical density at wavelengths of 490-530 nm.

P. berghei [3] = assay: Blood schizontocidal test in mice, oral; type: in vivo; details: for toxicity in mice: oral, at the highest dose tested
Protocol: Drugs were mixed in 0.5% hydroxycellulose 0.1% Tween 80 and administered orally b.i.d. on days 3, 4 and 5 postinfection. CD-1 male or female mice, 5 weeks of age, were infected with 5×10^4 parasitized erythrocytes of Plasmodium berghei KBG-173 mm strain. Blood films were taken on day +6 and weekly thereafter until day +60. Parasitemias were calculated and SD90 value (dose suppressing 90% of the parasites in treated groups compared with the infected non-treated controls) on day +6 postinfection. Mortality data was tabulated for 60 days at which time all mice surviving that were blood film negative were considered cured. […]

[4] = tested on: P. falciparum W2 (chloroquine resistant); assay: In vitro anti-malarial activity, [3H]hypoxanthine uptake, W2 clone; type: cell-based, Plasmodium falciparum
Text: as §1, §2

[5] = tested on: Plasmodium berghei KBG-173; assay: Prophylactic test in mice, oral; type: in vivo; details: for Mice infected and treated/Mice surviving day 60: oral; for protection from malaria: single dose of 0.5 mg/kg within 2 days pre-infection through 2 days post-infection
Protocol: Compounds were tested for oral prophylactic activity.
CD-I male or female mice, 5 weeks of age, were infected with 5×10^4 parasitized erythrocytes of Plasmodium berghei KBG-173 mm strain. […]

P. berghei [6] = assay: Suppressive blood schizontocidal activity in mice, subcutaneous single dose; type: in vivo; details: 72 h after infection
Protocol: Mice were treated with a single dose of the compound administered subcutaneously 72 h after infection. Number of cures is the number of mice surviving, out of five, 60 days postinfection.

[7] = oral dose 0.25 mg/kg/day (total dose 0.75 mg/kg)
[8] = oral dose 1.0 mg/kg/day (total dose 3.0 mg/kg)
[9] = oral dose 4.0 mg/kg/day (total dose 12 mg/kg)
[10] = oral dose 16 mg/kg/day (total dose 48 mg/kg)
[11] = oral dose 64 mg/kg/day (total dose 192 mg/kg)
[12] = Plasmodium falciparum, D6; read-out: IC50 D6 Strain
[13] = THLE3, THLE-3 cells, 72 hours, cell growth inhibition
[14] = day of treatment 1, dose 0.5 mg/kg
[15] = day of treatment 1, dose 2 mg/kg
[16] = day of treatment 1, dose 8 mg/kg
[17] = day of treatment 1, dose 32 mg/kg
[18] = day of treatment 2, dose 0.5 mg/kg
[19] = day of treatment 2, dose 2 mg/kg
[20] = day of treatment 2, dose 8 mg/kg
[21] = day of treatment 2, dose 32 mg/kg
[22] = day of treatment −1, dose 0.5 mg/kg
[23] = day of treatment −1, dose 2 mg/kg
[24] = day of treatment −1, dose 8 mg/kg
[25] = day of treatment −1, dose 32 mg/kg
[26] = day of treatment −2, dose 0.5 mg/kg
[27] = day of treatment −2, dose 2 mg/kg
[28] = day of treatment −2, dose 8 mg/kg
[29] = day of treatment −2, dose 32 mg/kg
[30] = subcutaneous single dose 1 mg/kg
[31] = subcutaneous single dose 2 mg/kg
[32] = subcutaneous single dose 4 mg/kg
[33] = subcutaneous single dose 8 mg/kg
[34] = subcutaneous single dose 16 mg/kg
[35] = subcutaneous single dose 32 mg/kg
[36] = subcutaneous single dose 64 mg/kg
[37] = subcutaneous single dose 128 mg/kg
[38] = Plasmodium falciparum, W2; read-out: IC50 W2 Strain

SMILES | Selectivity IC50 (THLE-3)/IC50 (D6) [2] | Mice surviving 60 days/Mice infected and treated (P. berghei [3]; [7]) | Mice surviving 60 days/Mice infected and treated (P. berghei [3]; [8]) | Mice surviving 60 days/Mice infected and treated (P. berghei [3]; [9]) | Mice surviving 60 days/Mice infected and treated (P. berghei [3]; [10]) | Mice surviving 60 days/Mice infected and treated (P. berghei [3]; [11]) | inhibitory activity against chloroquine sensitive malaria strain (D-6), in words ([1]; D-6 strain) | IC50 [1, 12] [ng/mL] | IC50 [2, 13] [ng/mL] | toxicity in mice (P. berghei [3]) | Mice infected and treated/Mice surviving day 60 [5, 14] | Mice infected and treated/Mice surviving day 60 [5, 15] | Mice infected and treated/Mice surviving day 60 [5, 16] | Mice infected and treated/Mice surviving day 60 [5, 17] | Mice infected and treated/Mice surviving day 60 [5, 18] | Mice infected and treated/Mice surviving day 60 [5, 19] | Mice infected and treated/Mice surviving day 60 [5, 20] | Mice infected and treated/Mice surviving day 60 [5, 21] | Mice infected and treated/Mice surviving day 60 [5, 22] | Mice infected and treated/Mice surviving day 60 [5, 23] | other results
CCN(CC)CCCC(C)Nc1ccnc2cc(Cl)ccc12 (centres unmarked) [Chloroquine, reference compound] | 463 | 0/7 | 0/7 | 2/7 | 4/7 | 0/7 | – | – | – | – | – | – | – | – | – | – | – | – | – | – | IC50 ([1]; Plasmodium falciparum, D6, read-out: IC50 D6 Strain): 6.3 ng/mL (≈ 0.0197 µM); IC50 ([2]; THLE3, 72 h): 2920 ng/mL (≈ 9.13 µM); IC50 ([4]; Plasmodium falciparum, W2, read-out: IC50 W2 Strain): 108 ng/mL (≈ 0.338 µM)
CC[C@@]12C=Cc3nc4c(OC)c(OC)c5c(c4cc3C1N(C(C)=O)CC1O[C@@H]12)C(=O)[C@](C)(C(=O)OC)N5C(C)=O (some centres unmarked) [Formula II] | 7.3 × 10^4 | 7/7 | 7/7 | 7/7 | 7/7 | 7/7 | equally potent inhibitory activity | 0.21 | 15400 | no mice showed toxicity | 5/5 | 5/5 | 5/5 | 5/5 | 5/5 | 5/5 | 5/5 | 5/5 | 5/5 | 5/5 | Mice infected and treated/Mice surviving day 60 [5, 24]: 5/5; Mice infected and treated/Mice surviving day 60 [5, 25]: 5/5; Mice infected and treated/Mice surviving day 60 [5, 26]: 5/5; Mice infected and treated/Mice surviving day 60 [5, 27]: 5/5; Mice infected and treated/Mice surviving day 60 [5, 28]: 5/5; Mice infected and treated/Mice surviving day 60 [5, 29]: 5/5; protection from malaria [5]: completely protected from malaria; Mice surviving 60 days/Mice infected and treated (P. berghei [6]; [30]): 4/5; Mice surviving 60 days/Mice infected and treated (P. berghei [6]; [31]): 5/5; Mice surviving 60 days/Mice infected and treated (P. berghei [6]; [32]): 5/5; Mice surviving 60 days/Mice infected and treated (P. berghei [6]; [33]): 5/5; Mice surviving 60 days/Mice infected and treated (P. berghei [6]; [34]): 5/5; Mice surviving 60 days/Mice infected and treated (P. berghei [6]; [35]): 5/5; Mice surviving 60 days/Mice infected and treated (P. berghei [6]; [36]): 5/5; Mice surviving 60 days/Mice infected and treated (P. berghei [6]; [37]): 5/5; IC50 [4, 38]: 0.23 ng/mL; inhibitory activity against chloroquine resistant malaria strain (W-2), in words ([4]; W-2 strain): equally potent inhibitory activity
CC[C@]12C=CCN(C(C)=O)C1c1cc3c(nc1C=C2)c(OC)c(OC)c1c3cc(C(=O)SC)n1C(C)=O (some centres unmarked) [Formula I] | 5.3 × 10^4 | 7/7 | 7/7 | 7/7 | 7/7 | 7/7 | equally potent inhibitory activity | 0.32 | 17100 | no mice showed toxicity | 5/5 | 5/5 | 5/5 | 5/5 | 5/5 | 5/5 | 5/5 | 5/5 | 5/5 | 5/5 | Mice infected and treated/Mice surviving day 60 [5, 24]: 5/5; Mice infected and treated/Mice surviving day 60 [5, 25]: 5/5; Mice infected and treated/Mice surviving day 60 [5, 26]: 5/5; Mice infected and treated/Mice surviving day 60 [5, 27]: 5/5; Mice infected and treated/Mice surviving day 60 [5, 28]: 5/5; Mice infected and treated/Mice surviving day 60 [5, 29]: 5/5; protection from malaria [5]: completely protected from malaria; Mice surviving 60 days/Mice infected and treated (P. berghei [6]; [30]): 4/5; Mice surviving 60 days/Mice infected and treated (P. berghei [6]; [31]): 5/5; Mice surviving 60 days/Mice infected and treated (P. berghei [6]; [32]): 5/5; Mice surviving 60 days/Mice infected and treated (P. berghei [6]; [33]): 5/5; Mice surviving 60 days/Mice infected and treated (P. berghei [6]; [34]): 5/5; Mice surviving 60 days/Mice infected and treated (P. berghei [6]; [35]): 5/5; Mice surviving 60 days/Mice infected and treated (P. berghei [6]; [36]): 5/5; Mice surviving 60 days/Mice infected and treated (P. berghei [6]; [37]): 5/5; IC50 [4, 38]: 0.29 ng/mL; inhibitory activity against chloroquine resistant malaria strain (W-2), in words ([4]; W-2 strain): equally potent inhibitory activity
